Assay results: US11325937B2, “Glycoside compound and preparation method therefor, composition, application, and intermediate” (SHANGHAI HUTCHISON PHARMACEUTICALS LIMITED, priority 2018, dated 2022)
Where two headings read alike, the source gives them in different places.

System: VEGF-A mRNA expression in macrophages (RAW264.7)
Test: In vitro macrophage experiment: activity of compounds to promote VEGF-A mRNA expression (RT-qPCR)
Format: cell-based
Parameters: Expression level of VEGF-A mRNA: unit of the concentration uncertain
Details: for fold induction at 1 µM / fold induction at 100 µM / fold induction at 500 µM / fold induction at 1000 µM / fold induction at 2000 µM / fold induction at 3000 µM: Mus musculus, read-out: Expression level of VEGF-A mRNA
Excerpt: 1.1. Specific steps for activity screening: 1-10×10^6 macrophages (RAW264.7) in logarithmic growth phase were transferred to a cell culture plate. The test compounds (Compounds TG-001, TG-002, TG-003, TG-004, TG-005, TG-006, TG-007, TG-008, TG-009, TG-010, TG-011, TG-012, TG-013, TG-014, TG-015, TG-016, TG-017, TG-018, TG-019, TG-020, TG-021, TG-022, TG-023, TG-024, TG-025, TG-026, TG-027, TG-028, TG-029, TG-030, TG-031, TG-032, TG-033, TG-034, TG-035, TG-036, TG-037, TG-045, TG-039, TG-040 TG-041, TG-042, TG-043, TG-044, TG-045, TG-052, TG-053, TG-054, TG-047, TG-048, TG-046, TG-049, TG-050, TG-051, TG-055 and TG-056) were respectively diluted into various concentrations, and separately added to the cell culture plate containing macrophage. The cells were cultured for 3 h in a complete medium (RPMI 1640 medium:fetal bovine serum:tri-resistance screening agent (i.e. penicillin-streptomycin-gentamicin, Beijing Leagene Biotechnology Co., Ltd.)=89:10:1 based on volume) in a cell incubator at 37° C. and 5% CO2. The cells were lyzed by Trizol (Beijing ComWin Biotech Co., Ltd) to extract RNA, and the RNA concentration was measured using a microvolume nucleic acid and protein analyzer (Nanodrop2000c). The required volume V of RNA was calculated according to the RNA concentration, and the RNA reverse transcription reaction system was prepared according to Table 1. Then RNA reverse transcription (cDNA synthesis) (RT Easy™ I (For first-strand cDNA synthesis) Reverse Transcription Kit, Chengdu ForeGene Biotechnology Co., Ltd.) was carried out according to the conditions described in Table 2. The resulting cDNA was used to prepare a fluorescence quantitative PCR reaction solution according to Table 3. The fluorescence quantitative PCR reaction conditions were set according to Table 4, and the fluorescence quantitative PCR reaction (Real time PCR Easy™-SYBR Green Fluorescence Quantification Kit, Chengdu ForeGene Biotechnology Co., Ltd.) was performed using cDNA from the reverse transcription reaction as a template. The relative expression level 2^−ΔΔCt of the target gene was calculated from the Ct value of each sample with the blank control group as a control and β-Actin as an internal reference.
Based on the maximum level of VEGF-A mRNA expression promoted by a drug at a certain concentration, the activity of the drug was determined. The expression level of VEGF-A mRNA in macrophages was defined as 1 when no drug was added. Using a traditional Chinese medicine injection Salvianolate that is used in the treatment of Cardio-cerebrovascular disease and promotes a maximum level of VEGF-A mRNA expression of 6 in macrophages (the results are shown in Table 5) as a judgment standard, the compound promoting a maximum level of VEGF-A mRNA expression of 4 or more in macrophage was a target compound. That is, when the maximum level of VEGF-A mRNA expression in macrophages promoted by the test compound is over 4-fold higher than the expression level of VEGF-A mRNA in macrophages without the addition of the test compound, the test compound was a preliminary target compound promoting angiogenesis.

[1] = 1 μM, RAW264.7 macrophages, 3 h, relative expression 2^-ΔΔCt, no drug = 1
[2] = 0.1 mM, RAW264.7 macrophages, 3 h, relative expression, no drug = 1
[3] = 0.5 mM, RAW264.7 macrophages, 3 h, relative expression, no drug = 1
[4] = 1 mM, RAW264.7 macrophages, 3 h, relative expression, no drug = 1
[5] = 2 mM, RAW264.7 macrophages, 3 h, relative expression, no drug = 1
[6] = 3 mM, RAW264.7 macrophages, 3 h, relative expression, no drug = 1

| Compound | fold induction at 1 µM [1] | fold induction at 100 µM [2] | fold induction at 500 µM [3] | fold induction at 1000 µM [4] | fold induction at 2000 µM [5] | fold induction at 3000 µM [6] | also measured |
| --- | --- | --- | --- | --- | --- | --- | --- |
| OC[C@H]1O[C@@H](OCCCCc2ccc(OCC3COC3)cc2)[C@H](O)[C@@H](O)[C@@H]1O [TG-025] | 1.62 | 1.78 | 1.43 | 2.15 | 9.69 | 2.06 | – |
| OC[C@H]1O[C@@H](OCCCCc2ccc(OCC3CCCC3)cc2)[C@H](O)[C@@H](O)[C@@H]1O [TG-018] | 0.88 | 3.62 | 4.15 | 5.26 | 7.24 | 6.53 | – |
| OC[C@H]1O[C@@H](OCCCCc2ccc(OCc3ccccn3)cc2)[C@H](O)[C@@H](O)[C@@H]1O [TG-022] | 2.31 | 0.91 | 1.43 | 1.68 | 1.89 | 0.66 | – |
| OC[C@H]1O[C@@H](OCCCCc2ccc(OCc3ccc(F)cc3)cc2)[C@H](O)[C@@H](O)[C@@H]1O [TG-051] | 1.1 | 4.49 | 6.76 | 7.89 | 11.2 | 8.18 | – |
| CC(C)(C)CCOc1ccc(CCCCO[C@@H]2O[C@H](CO)[C@@H](O)[C@H](O)[C@H]2O)cc1 [TG-040] | 2.09 | 3.97 | 1.46 | 0.81 | 0.22 | 0.28 | – |
| TG-003 | – | – | – | – | – | – | Expression level of VEGF-A mRNA [1]: 0.96; Expression level of VEGF-A mRNA (0.1 (unit uncertain), RAW264.7 macrophages, 3 h, relative expression, no drug = 1): 3.56; Expression level of VEGF-A mRNA (0.5 (unit uncertain), RAW264.7 macrophages, 3 h, relative expression, no drug = 1): 4.69; Expression level of VEGF-A mRNA (1 (unit uncertain), RAW264.7 macrophages, 3 h, relative expression, no drug = 1): 3.12; Expression level of VEGF-A mRNA (2 (unit uncertain), RAW264.7 macrophages, 3 h, relative expression, no drug = 1): 1.39; Expression level of VEGF-A mRNA (3 (unit uncertain), RAW264.7 macrophages, 3 h, relative expression, no drug = 1): 0.56 |
| COc1ccc(CCCCO[C@@H]2O[C@H](CO)[C@@H](O[C@@H]3OC(CO)[C@H](O)[C@H](O)[C@H]3O)[C@H](O)[C@H]2O)cc1 (stereo partly drawn) [TG-045] | 0.62 | 0.99 | 0.62 | 0.73 | 1.78 | 0.35 | – |
| OC[C@H]1O[C@@H](OCCCCc2ccc(F)cc2)[C@H](O)[C@@H](O)[C@@H]1O [TG-010] | 0.98 | 0.68 | 0.69 | 1.48 | 5.31 | 9.78 | – |
| OC[C@H]1O[C@@H](OCCCCc2ccc(OCc3ccc(C(F)(F)F)cc3)cc2)[C@H](O)[C@@H](O)[C@@H]1O [TG-026] | 1.44 | 6.85 | 7.92 | 8.13 | 7.92 | 8.16 | – |
| COc1ccc(CNCCO[C@@H]2O[C@H](CO)[C@@H](O)[C@H](O)[C@H]2O)cc1 [TG-036] | – | – | – | – | – | – | fold induction at 1 µM (RAW264.7, 3 h): 1.19; fold induction at 100 µM (RAW264.7, 3 h): 1.39; fold induction at 500 µM (RAW264.7, 3 h): 0.32; fold induction at 1000 µM (RAW264.7, 3 h): 1.09; fold induction at 2000 µM (RAW264.7, 3 h): 0.43; fold induction at 3000 µM (RAW264.7, 3 h): 1.75 |
| CCOc1ccc(CCCCO[C@@H]2O[C@H](CO)[C@@H](O)[C@H](O)[C@H]2O)cc1 [TG-024] | 1.82 | 1.14 | 1.64 | 4.86 | 8.38 | 4.32 | – |
| OC[C@H]1O[C@@H](OCCCCc2ccc(OCc3cccnc3)cc2)[C@H](O)[C@@H](O)[C@@H]1O [TG-017] | 1.54 | 1.29 | 2.55 | 5.9 | 2.29 | 2.48 | – |
| OC[C@H]1O[C@@H](OCCCCc2ccc(OCc3ccccc3F)cc2)[C@H](O)[C@@H](O)[C@@H]1O [TG-050] | 1.27 | 2.81 | 1.85 | 2.16 | 1.74 | 15.1 | – |
| CC(C)(C)COc1ccc(CCCCO[C@@H]2O[C@H](CO)[C@@H](O)[C@H](O)[C@H]2O)cc1 [TG-041] | 0.62 | 0.84 | 1.97 | 8.17 | 0.16 | 0.23 | – |
| OC[C@H]1O[C@@H](OCCCCc2ccc(Br)cc2)[C@H](O)[C@@H](O)[C@@H]1O [TG-012] | 1.99 | 2.31 | 3.14 | 0.5 | 2.08 | 4.38 | – |
| OC[C@H]1O[C@@H](OCCCCc2ccc(OCC3CCOCC3)cc2)[C@H](O)[C@@H](O)[C@@H]1O [TG-020] | 0.88 | 0.93 | 2.8 | 3.9 | 2.24 | 2.56 | – |
| OC[C@H]1O[C@@H](OCCCCc2ccc(O)cc2)[C@H](O)[C@@H](O)[C@@H]1O [TG-023] | 0.16 | 0.55 | 0.71 | 0.5 | 0.19 | 0.71 | – |
